Assay results published in patent publication US8551957B2, “Pharmaceutical composition comprising a glucopyranosyl-substituted benzene derivate” (Boehringer Ingelheim International GmbH, priority 2007, dated 2013).

Experiments:
[1] = tested on: Sprague Dawley rats (Crl:CD(SD)); test: oral glucose tolerance test in overnight fasted Sprague Dawley rats (2nd Example); format: in vivo, rat; details: male Sprague Dawley rats, not statistically significant
Protocol: (§1) According to a second example an oral glucose tolerance test is performed in overnight fasted male Sprague Dawley rats (Crl:CD(SD)) with a body weight of about 200 g. A pre-dose blood sample is obtained by tail bleed. Blood glucose is measured with a glucometer, and the animals are randomized for blood glucose (n=5/group). Subsequently, the groups receive a single oral administration of either vehicle alone (0.5% aqueous hydroxyethylcellulose containing 0.015% Polysorbat 80) or vehicle containing either the glucopyranosyl-substituted benzene derivative or the DPPIV inhibitor or the combination of the glucopyranosyl-substituted benzene derivative with the DPPIV inhibitor. The animals receive an oral glucose load (2 g/kg) 30 min after compound administration. Blood glucose is measured in tail blood 30 min, 60 min, 90 min, and 120 min after the glucose challenge. Glucose excursion is quantified by calculating the reactive glucose AUC. The data are presented as mean±S.E.M. Statistical comparisons are conducted by Student's t test.
“Cpd. A” is the glucopyranosyl-substituted benzene derivative (9), i.e. 1-chloro-4-(β-D-glucopyranos-1-yl)-2-[4-((S)-tetrahydrofuran-3-yloxy)-benzyl]-benzene, administered at a dose of 3 mg/kg. The DPPIV inhibitor saxagliptin is administered at a dose of 0.3 mg/kg. […]

[2] = tested on: Sprague Dawley rats (Crl:CD(SD)); test: oral glucose tolerance test in overnight fasted Sprague Dawley rats (3rd Example); format: in vivo, rat; details: male Sprague Dawley rats, not statistically significant
Protocol: as §1
In a third example the same experimental setting is employed as in the second example as described herein before. The glucopyranosyl-substituted benzene derivative (9), i.e. 1-chloro-4-(β-D-glucopyranos-1-yl)-2-[4-((S)-tetrahydrofuran-3-yloxy)-benzyl]-benzene, is administered at a dose of 3 mg/kg. […]

[3] = tested on: Zucker Diabetic Fatty (ZDF) rats (ZDF/Crl-Lepr^fa); test: oral glucose tolerance test in overnight fasted ZDF rats (1st Example); format: in vivo, rat; details: male ZDF rats
Protocol: According to a first example an oral glucose tolerance test is performed in overnight fasted 9-weeks old male Zucker Diabetic Fatty (ZDF) rats (ZDF/Crl-Lepr^fa). A pre-dose blood sample is obtained by tail bleed. Blood glucose is measured with a glucometer, and the animals are randomized for blood glucose (n=5/group). Subsequently, the groups receive a single oral administration of either vehicle alone (0.5% aqueous hydroxyethylcellulose containing 3 mM HCl and 0.015% Polysorbat 80) or vehicle containing either the glucopyranosyl-substituted benzene derivative or the DPP IV inhibitor or the combination of the glucopyranosyl-substituted benzene derivative with the DPP IV inhibitor. The animals receive an oral glucose load (2 g/kg) 30 min after compound administration. Blood glucose is measured in tail blood 30 min, 60 min, 90 min, 120 min, and 180 min after the glucose challenge. Glucose excursion is quantified by calculating the reactive glucose AUC. The data are presented as mean±SEM. The two-sided unpaired Student t-test is used for statistical comparison of the control group and the active groups.
“Cpd. A” is the DPP IV inhibitor 1-[(4-methyl-quinazolin-2-yl)methyl]-3-methyl-7-(2-butyn-1-yl)-8-(3-(R)-amino-piperidin-1-yl)-xanthine at a dose of 1 mg/kg. Cpd. […]

[4] = in the diabetic, metformin on its own; cited from earlier work
[5] = single oral dose 3 mg/kg 30 min before glucose load 2 g/kg

For `N#C[C@@H]1C[C@@H]2C[C@@H]2N1C(=O)[C@@H](N)C12CC3CC(CC(O)(C3)C1)C2` [saxagliptin, (1S,3S,5S)-2-{(2S)-2-amino-2-(3-hydroxyadamantan-1-yl)acetyl}-2-azabicyclo[3.1.0]hexane-3-carbonitrile, reference compound], the “reduction of glucose excursion (reactive glucose AUC)” value (“reduction of glucose excursion” below) ([1]; single oral dose 0.3 mg/kg 30 min before glucose load 2 g/kg) was 12%.

For `OC[C@H]1O[C@@H](c2ccc(Cl)c(Cc3ccc(O[C@H]4CCOC4)cc3)c2)[C@H](O)[C@@H](O)[C@@H]1O` [(9), 1-chloro-4-(β-D-glucopyranos-1-yl)-2-[4-((S)-tetrahydrofuran-3-yloxy)-benzyl]-benzene], the “reduction of glucose excursion” value [2, 5] was 21%, the “reduction of glucose excursion” value [1, 5] was 21% and the “reduction of glucose excursion” value ([3]; single oral dose 3 mg/kg 30 min before oral glucose load 2 g/kg) was 51%.

For `N[C@@H](CC(=O)N1CCn2c(nnc2C(F)(F)F)C1)Cc1cc(F)c(F)cc1F` [sitagliptin, (3R)-3-amino-1-[3-(trifluoromethyl)-5,6,7,8-tetrahydro-5H-[1,2,4]triazolo[4,3-a]pyrazin-7-yl]-4-(2,4,5-trifluorophenyl)butan-1-one, reference compound], the “reduction of glucose excursion” value ([2]; single oral dose 10 mg/kg 30 min before glucose load 2 g/kg) was 16%.

In the case of `CN(C)C(=N)N=C(N)N` [metformin], the “average improvement in the HbA1c value” [4] is given as 1.0-1.5%.

With `CC#CCn1c(N2CCC[C@@H](N)C2)nc2c1c(=O)n(Cc1nc(C)c3ccccc3n1)c(=O)n2C` [Cpd. A, 1-[(4-methyl-quinazolin-2-yl)methyl]-3-methyl-7-(2-butyn-1-yl)-8-(3-(R)-amino-piperidin-1-yl)-xanthine] the “reduction of glucose excursion” value ([3]; single oral dose 1 mg/kg 30 min before oral glucose load 2 g/kg) was 56%.
